The NIST ThermoML archive (doi:10.1016/j.jct.2011.02.018)

Assay: xn = mol fraction of the nth substance listed
Settings: 101 kPa, Liquid; for viscosity: Concentric cylinders viscometry; for mass density: Vibrating tube method

COC(C)(C)C [2-methoxy-2-methylpropane] + CCCO
Settings	mass density, 293.15 K [kg/m3]	mass density, 298.15 K [kg/m3]	mass density, 303.15 K [kg/m3]	mass density, 308.15 K [kg/m3]	viscosity, 293.15 K [mPa·s]	viscosity, 298.15 K [mPa·s]	viscosity, 303.15 K [mPa·s]	viscosity, 308.15 K [mPa·s]
x1 = 0.0126	802.92	798.92	794.86	790.76	2.139	1.886	1.676	1.494
x1 = 0.0219	802.2	798.21	794.13	790.02	2.069	1.832	1.631	1.456
x1 = 0.0298	801.64	797.61	793.53	789.4	2.014	1.79	1.594	1.424
x1 = 0.0403	800.81	796.7	792.61	788.45	1.948	1.735	1.548	1.386
x1 = 0.05	800.12	796.03	791.93	787.77	1.885	1.683	1.502	1.347
x1 = 0.0599	799.4	795.34	791.21	787.04	1.835	1.635	1.462	1.309
x1 = 0.0699	798.72	794.62	790.47	786.28	1.78	1.589	1.429	1.276
x1 = 0.0798	798.25	794.12	789.92	785.72	1.736	1.552	1.391	1.252
x1 = 0.09	797.26	793.05	788.85	784.63	1.67	1.492	1.338	1.203
x1 = 0.1003	796.41	792.28	788.08	783.85	1.627	1.459	1.301	1.181
x1 = 0.1495	793.03	788.85	784.61	780.3	1.412	1.275	1.151	1.042
x1 = 0.1999	789.56	785.28	780.94	776.55	1.234	1.119	1.016	0.9225
x1 = 0.25	786.15	781.8	777.38	772.92	1.089	0.9917	0.9045	0.8231
x1 = 0.3003	782.74	778.33	773.84	769.32	0.9663	0.8841	0.809	0.7398
x1 = 0.35	779.47	774.99	770.45	765.85	0.8694	0.7946	0.7291	0.6694
x1 = 0.4015	776.15	771.6	766.99	762.32	0.7809	0.721	0.6608	0.6082
x1 = 0.4585	772.51	767.88	763.21	758.45	0.6993	0.6452	0.5966	0.5495
x1 = 0.5002	769.91	765.22	760.49	755.68	0.6508	0.6047	0.5568	0.5119
x1 = 0.5505	766.88	762.1	757.3	752.42	0.5953	0.5528	0.5121	0.4715
x1 = 0.5994	763.94	759.14	754.28	749.34	0.5508	0.52	0.4831	0.4457
x1 = 0.6475	761.06	756.21	751.27	746.28	0.5181	0.4813	0.4499	0.4153
x1 = 0.7026	757.85	752.93	747.92	742.86	0.4767	0.4449	0.4145	0.3818
x1 = 0.7536	754.92	749.92	744.86	739.74	0.4509	0.4165	0.3944	0.3602
x1 = 0.8033	752.01	747.01	741.89	736.72	0.4202	0.3922	0.3655	0.3345
x1 = 0.8471	749.51	744.41	739.24	734.04	0.4014	0.375	0.3506	0.3255
x1 = 0.9007	746.4	741.27	736.06	730.79	0.3802	0.3537	0.3303	0.308
x1 = 0.9107	745.77	740.64	735.41	730.13	0.3705	0.3499	0.3277	0.302
x1 = 0.9185	745.32	740.18	734.94	729.65	0.3679	0.3536	0.3317	0.3014
x1 = 0.9282	744.76	739.61	734.37	729.07	0.3645	0.3411	0.3205	0.2934
x1 = 0.94	744.07	738.91	733.65	728.34	0.3597	0.3383	0.3153	0.295
x1 = 0.9493	743.55	738.35	733.09	727.78	0.3573	0.3241	0.3106	0.2879
x1 = 0.9599	742.94	737.74	732.47	727.15	0.3554	0.3246	0.3102	0.2939
x1 = 0.9698	742.37	737.19	731.91	726.58	0.349	0.329	0.3092	0.2843
x1 = 0.9796	741.82	736.64	731.35	726.01	0.3454	0.3252	0.3054	0.2803
x1 = 0.9882	741.32	736.14	730.84	725.49	0.344	0.3242	0.3046	0.2819

COC(C)(C)C [2-methoxy-2-methylpropane] + CO
mass density [kg/m3]
Settings	293.15 K	298.15 K	303.15 K	308.15 K
x1 = 0.01	790.62	785.93	781.19	776.42
x1 = 0.0201	789.69	785	780.24	775.46
x1 = 0.0301	788.74	784.01	779.26	774.46
x1 = 0.0402	787.83	783.09	778.32	773.51
x1 = 0.0502	786.96	782.24	777.44	772.61
x1 = 0.0601	786.1	781.36	776.57	771.73
x1 = 0.0696	785.32	780.58	775.75	770.9
x1 = 0.0799	784.47	779.71	774.88	770.02
x1 = 0.0888	783.72	778.95	774.12	769.25
x1 = 0.1008	782.79	778	773.16	768.27
x1 = 0.1498	779.11	774.25	769.36	764.43
x1 = 0.1945	776.01	771.13	766.21	761.24
x1 = 0.26	771.99	767.08	762.1	757.08
x1 = 0.3006	769.58	764.65	759.64	754.59
x1 = 0.3482	766.92	761.97	756.93	751.87
x1 = 0.3841	765.07	760.07	755.01	749.92
x1 = 0.4527	761.67	756.67	751.59	746.45
x1 = 0.5004	759.46	754.42	749.29	744.12
x1 = 0.5458	757.52	752.46	747.32	742.12
x1 = 0.6009	755.29	750.18	745.03	739.81
x1 = 0.6459	753.48	748.37	743.18	737.93
x1 = 0.7014	751.36	746.23	741.01	735.74
x1 = 0.7449	749.75	744.6	739.36	734.07
x1 = 0.7986	747.76	742.58	737.33	732.01
x1 = 0.8504	745.92	740.74	735.47	730.13
x1 = 0.8978	744.27	739.05	733.78	728.43
x1 = 0.9091	743.88	738.66	733.39	728.04
x1 = 0.9184	743.53	738.33	733.04	727.69
x1 = 0.9259	743.26	738.07	732.78	727.43
x1 = 0.9379	742.81	737.6	732.32	726.97
x1 = 0.9473	742.48	737.28	732	726.65
x1 = 0.9598	742.06	736.83	731.56	726.21
x1 = 0.9706	741.68	736.46	731.17	725.82
x1 = 0.9791	741.36	736.13	730.85	725.49
x1 = 0.9881	741.04	735.82	730.53	725.18
